# Legend:
# [1] = molecular target: T1, γ-CaCAmut (Caloramator australicus, UniProt G0V3M6, V46E/T67E/G68E/Y159N, form not given); assay: spectrophotometric p-nitrophenol release at […] nm; type: biochemical; details: 0.1 M KH2PO4, pH 8.0, 25°C; 0.4-3.5 mM p-NPA; esterase activity
# T1 construct: gene CAAU_0066
# [2] = molecular target: T1, γ-CaCAmut; details: pNPA as substrate, 25°C; 1 mM inhibitor
# T1 sequence (G0V3M6 1-167 G68E/T67E/V46E/Y159N limits assumed): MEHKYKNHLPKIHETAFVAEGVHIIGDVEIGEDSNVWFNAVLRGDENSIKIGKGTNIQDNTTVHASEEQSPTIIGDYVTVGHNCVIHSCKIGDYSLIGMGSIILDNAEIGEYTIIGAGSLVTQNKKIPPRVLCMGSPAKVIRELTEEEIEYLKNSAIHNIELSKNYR
Km [1],SMILES,% inhibition at 1 mM [2]
960 ± 50 µM,CC(=O)Oc1ccc([N+](=O)[O-])cc1 [p-nitrophenyl acetate],–
–,Nc1ccc(S(N)(=O)=O)cc1 [sulfanilamide],"Inhibition of γ‐CaCAmut by three common diagnostic CA inhibitors (sulfanilamide, azide, and EDTA)"

# Source: article PMC12648627, “Structural and functional characterization of a metagenomically derived γ‐type carbonic anhydrase and its engineering into a hyperthermostable esterase” (Protein Science : A Publication of the Protein Society, 2025)
